Experimental data from publication PMC3853718 (Journal of Translational Medicine, 2013).
Where two headings read alike, the source gives them in different places. Marks after values point to notes of the source that are not given here.

What was measured:
[1] = Plasma pharmacokinetics after 2-hour IV infusion (LC-MS/MS); conditions: for AUC(0-inf): read-out: AUC(I) Mean; for AUC(0-t): read-out: AUC(tf) Mean
mouse xenograft model = conditions: cited from earlier work
solid tumors = experiment: Tumor response by CT or MRI and RECIST; type: in vivo, human
clinical = conditions: human, plasma
nude mice = conditions: once-daily administration for 7 days in nude mice; cited from earlier work
Rb phosphorylation = conditions: cited from earlier work
[2] = test system: myeloma and NSCLC mouse xenograft models; conditions: at a dose 33% of the MAD; cited from earlier work

## CCc1cnn2c(NCc3ccc[n+]([O-])c3)cc(N3CCCC[C@H]3CCO)nc12 [dinaciclib]
[1]; 0.33 to 14 mg/m^2
  CL dependence on dose: dose independent
[1]; 2-hour IV administration
  time at which Cmax was observed after the initiation of the infusion: approximately 2 hours
[1]; Day 1, 0.33 mg/m^2, N 1
  CL Mean: 12.4 L/hr/m^2
  Vd Mean: 35.9 L/m^2
  t½ Mean: 2.01 h
  AUC(0-inf): 26.7 ng·h/mL
  AUC(0-t): 26.1 ng·h/mL
[1]; Day 1, 0.66 mg/m^2, N 1
  CL Mean: 18.5 L/hr/m^2
  Cmax Mean: 18.6 ng/mL
  Tmax Median: 2 h
  Vd Mean: 39.4 L/m^2
  t½ Mean: 1.48 h
  AUC(0-inf): 35.7 ng·h/mL
  AUC(0-t): 35.3 ng·h/mL
[1]; Day 1, 1.32 mg/m^2, N 1
  Cmax Mean: 63.8 ng/mL
  Tmax Median: 2 h
  AUC(0-t): 112 ng·h/mL
[1]; Day 1, 2.59 mg/m^2, N 3 (n=1)
  Cmax Mean: 100^e ng/mL
  Tmax Median: 1^e hr
[1]; Day 1, 2.59 mg/m^2, N 3 (n=2)
  CL Mean: 12.8^d L/hr/m^2
  Vd Mean: 61.4^d L/m^2
  t½ Mean: 3.28^d hr
  AUC(0-inf): 214 ng·h/mL
[1]; Day 1, 3.63 mg/m^2, N 7 (n=6)
  CL Mean: 11.2^h L/hr/m^2
  Cmax Mean: 210^i ng/mL
  Tmax Median: 1^i hr
  Vd Mean: 40.2^h L/m^2
  t½ Mean: 2.9^h hr
  AUC(0-inf): 458 ng·h/mL
[1]; Day 1, 5.08 mg/m^2, N 3
  CL Mean: 15.9 L/hr/m^2
  Vd Mean: 72.7 L/m^2
[1]; Day 1, 7.11 mg/m^2, N 7
  CL Mean: 14.1 L/hr/m^2
  Vd Mean: 61.7 L/m^2
[1]; Day 1, 10 mg/m^2, N 3
  CL Mean: 16.1 L/hr/m^2
  Vd Mean: 68.5 L/m^2
  AUC(0-t): 681 ng·h/mL
[1]; Day 1, 12 mg/m^2, N 11
  CL Mean: 12.1 L/hr/m^2
  Vd Mean: 55.4 L/m^2
[1]; Day 1, 14 mg/m^2, N 5
  CL Mean: 9.24 L/hr/m^2
  Vd Mean: 39.8 L/m^2
[1]; Day 15, 0.33 mg/m^2, N 1
  CL Mean: 7.67 L/hr/m^2
  Vd Mean: 51 L/m^2
  t½ Mean: 4.61 h
[1]; Day 15, 0.66 mg/m^2, N 1
  CL Mean: 23.9 L/hr/m^2
  Vd Mean: 57.6 L/m^2
  AUC(0-t): 27.2 ng·h/mL
[1]; Day 15, 1.32 mg/m^2, N 1
  CL Mean: 9.83 L/hr/m^2
  Vd Mean: 48 L/m^2
[1]; Day 15, 2.59 mg/m^2, N 3 (n=2)
  CL Mean: 15.6^m L/hr/m^2
  Vd Mean: 80.7^m L/m^2
[1]; Day 15, 3.63 mg/m^2, N 6 (n=3)
  CL Mean: 12.5° L/hr/m^2
  Vd Mean: 71.6° L/m^2
[1]; Day 15, 5.08 mg/m^2, N 2
  CL Mean: 14.6 L/hr/m^2
  Cmax Mean: 147 ng/mL
  Tmax Median: 2 h
  Vd Mean: 66.2 L/m^2
  t½ Mean: 3.17 h
  AUC(0-inf): 354 ng·h/mL
[1]; Day 15, 7.11 mg/m^2, N 7
  Cmax Mean: 306 ng/mL
  Tmax Median: 1 h
  AUC(0-t): 710 ng·h/mL
[1]; Day 15, 7.11 mg/m^2, N 7 (n=6)
  CL Mean: 12.4^q L/hr/m^2
  Vd Mean: 49.9^q L/m^2
  t½ Mean: 2.71^q hr
  AUC(0-inf): 686 ng·h/mL
[1]; Day 15, 10 mg/m^2, N 3
  CL Mean: 15.2 L/hr/m^2
  Cmax Mean: 321 ng/mL
  Tmax Median: 2 h
  Vd Mean: 90.6 L/m^2
  t½ Mean: 4.14 h
  AUC(0-inf): 722 ng·h/mL
  AUC(0-t): 704 ng·h/mL
[1]; Day 15, 12 mg/m^2, N 10
  CL Mean: 11.5 L/hr/m^2
  Cmax Mean: 526 ng/mL
  Tmax Median: 2 h
  Vd Mean: 49.3 L/m^2
  t½ Mean: 3.16 h
  AUC(0-inf): 1270 ng·h/mL
  AUC(0-t): 1270 ng·h/mL
[1]; Day 15, 14 mg/m^2, N 4
  CL Mean: 13.9 L/hr/m^2
  Cmax Mean: 568 ng/mL
  Tmax Median: 2 h
  Vd Mean: 70.2 L/m^2
  t½ Mean: 3.43 h
  AUC(0-inf): 1180 ng·h/mL
[1]; days 1, 8, 15 of cycle 1 and day 1 of cycle 2
  accumulation in plasma: does not accumulate in plasma
[1]; Day 1, 2.59 mg/m^2, N 3
  AUC(0-t): 809 ng·h/mL
[1]; Day 1, 3.63 mg/m^2, N 7
  AUC(0-t): 465 ng·h/mL
[1]; Day 15, 2.59 mg/m^2, N 3
  AUC(0-t): 739 ng·h/mL
[1]; Day 15, 3.63 mg/m^2, N 6
  AUC(0-t): 401 ng·h/mL
Mouse xenograft model
  minimum effective dose, defined as >50% tumor growth inhibition: 5 mg/kg
Solid tumors; Subject 2902, NSCLC, 0.66 mg/m^2, stable disease
  Number of cycles: 6
Solid tumors; Subject 2910, Pseudomyxoma peritonei, 2.59 mg/m^2, stable disease
  Number of cycles: 9
Solid tumors; Subject 2913, Prostate cancer, 3.63 mg/m^2, stable disease
  Number of cycles: 4
Solid tumors; Subject 2920, Melanoma, 3.63 mg/m^2, stable disease
  Number of cycles: 10
Solid tumors; Subject 2926, Sarcoma, 7.11 mg/m^2, stable disease
  Number of cycles: 12
Solid tumors; Subject 2928, Gastrointestinal stromal tumor, 7.11 mg/m^2, stable disease
  Number of cycles: 10
Solid tumors; Subject 2931, Esophageal carcinoma, 7.11 mg/m^2, stable disease
  Number of cycles: 11
Solid tumors; Subject 2932, Adenoid cyst carcinoma, 7.11 mg/m^2, stable disease
  Number of cycles: 5
Solid tumors; Subject 2937, Adenoid cyst carcinoma, 14.0 mg/m^2, stable disease
  Number of cycles: 8
Solid tumors; Subject 2945, NSCLC, 12.0 mg/m^2, stable disease
  Number of cycles: 4
Solid tumors; all dose levels
  subjects with prolonged SD for at least 4 cycles of treatment: at least 10 subjects
Solid tumors; subjects with solid tumors, all dose levels
  complete or partial responses (RECIST): no observed complete or partial responses
clinical; intravenous, 0.33 mg/m2
  AUC(0-inf): 43 ng·h/mL
  AUC(0-t): 42.8 ng·h/mL
  Cmax: 11.1 ng/mL
  Tmax: 1 h
clinical; intravenous, 0.66 mg/m2
  AUC(0-inf): 27.6 ng·h/mL
  AUC(0-t): 28.4 ng·h/mL
  Cmax: 13.2 ng/mL
  Tmax: 1 h
  half-life: 1.67 h
clinical; intravenous, 1.32 mg/m2
  AUC(0-inf): 134 ng·h/mL
  AUC(0-t): 134 ng·h/mL
  Cmax: 69.5 ng/mL
  Tmax: 1 h
  half-life: 3.38 h
clinical; intravenous, 1.85 mg/m2
  AUC(0-inf): 216 ng·h/mL
  AUC(0-t): 216 ng·h/mL
  Cmax: 108 ng/mL
  Tmax: 2 h
  half-life: 2.66 h
clinical; intravenous, 2.59 mg/m2
  Cmax: 104 ng/mL
  Tmax: 1 h
  half-life: 3.6 h
clinical; intravenous, 3.63 mg/m2
  AUC(0-inf): 431 ng·h/mL
  AUC(0-t): 405 ng·h/mL
  Cmax: 163 ng/mL
  Tmax: 1 h
  half-life: 3.59 h
clinical; intravenous, 5.08 mg/m2
  AUC(0-inf): 327 ng·h/mL
  AUC(0-t): 327 ng·h/mL
  Cmax: 173 ng/mL
  Tmax: 2 h
  half-life: 3.19 h
clinical; intravenous, 7.11 mg/m2
  AUC(0-inf): 543 ng·h/mL
  AUC(0-t): 542 ng·h/mL
  Cmax: 250 ng/mL
  Tmax: 2 h
  half-life: 3.04 h
clinical; intravenous, 10 mg/m2
  AUC(0-inf): 687 ng·h/mL
  AUC(0-t): 694 ng·h/mL
  Cmax: 319 ng/mL
  Tmax: 2 h
  half-life: 3.02 h
clinical; intravenous, 12 mg/m2
  AUC(0-inf): 1150 ng·h/mL
  AUC(0-t): 1150 ng·h/mL
  Cmax: 525 ng/mL
  Tmax: 2 h
  half-life: 3.28 h
clinical; intravenous, 14 mg/m2
  AUC(0-inf): 2020 ng·h/mL
  AUC(0-t): 2020 ng·h/mL
  Cmax: 821 ng/mL
  Tmax: 1 h
  half-life: 3.09 h
clinical; iv
  half-life: 1.5 to 3.6 h
Nude mice
  maximum tolerated dose, defined as the dose associated with 20% weight loss: 60 mg/kg
Rb phosphorylation; 2 hours post treatment
  Rb phosphorylation in mouse skin biopsies: partial loss
Rb phosphorylation; 4 hours post treatment
  Rb phosphorylation in mouse skin biopsies: complete loss of Rb phosphorylation
[2]
  tumor response in xenograft models: complete tumor regression
